In general, EC50 refers to the concentration that produces a half-maximal response.

Non-standard residues stand in square brackets, D forms with d. Residues, ends and D or L forms follow the SMILES beside them. Ala(4-thiazolyl) = N[C@@H](Cc1cscn1)C(=O)O; 1Nal = N[C@@H](Cc1cccc2ccccc12)C(=O)O; Phe(2-F) = N[C@@H](Cc1ccccc1F)C(=O)O; Nle = CCCC[C@H](N)C(=O)O

The target of the first test is T1, human glucagon receptor (hGLUC R) (Homo sapiens, UniProt P47871).
T1 construct: expressed in transfected cells; host or cells: HEK-293
T1 sequence (P47871 26-477): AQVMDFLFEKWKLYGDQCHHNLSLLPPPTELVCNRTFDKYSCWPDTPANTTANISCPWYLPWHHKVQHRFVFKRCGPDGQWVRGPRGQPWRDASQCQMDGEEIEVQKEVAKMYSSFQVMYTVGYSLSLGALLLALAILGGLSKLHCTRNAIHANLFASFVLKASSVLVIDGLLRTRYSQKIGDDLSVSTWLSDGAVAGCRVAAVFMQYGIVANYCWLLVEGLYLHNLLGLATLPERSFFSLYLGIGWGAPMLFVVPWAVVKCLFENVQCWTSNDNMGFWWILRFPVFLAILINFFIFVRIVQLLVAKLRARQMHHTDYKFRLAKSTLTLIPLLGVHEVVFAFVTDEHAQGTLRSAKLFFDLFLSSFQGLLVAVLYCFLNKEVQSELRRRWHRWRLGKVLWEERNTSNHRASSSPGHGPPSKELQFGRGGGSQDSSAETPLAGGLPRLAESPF
Description: cAMP response (HTRF) of HEK-293 cells stably expressing human glucagon receptor. The format is cell-based. As to conditions: Table 4; read-out: EC50 hGLUC R. As for the experimental part: cAMP content of cells was determined using a kit from Cisbio Corp. (cat. no. 62AM4PEC) based on HTRF (Homogenous Time Resolved Fluorescence). For preparation, cells were split into T175 culture flasks and grown overnight to near confluency in medium (DMEM/10% FBS). Medium was then removed and cells washed with PBS lacking calcium and magnesium, followed by proteinase treatment with accutase (Sigma-Aldrich cat. no. A6964). Detached cells were washed and resuspended in assay buffer (1×HBSS; 20 mM HEPES, 0.1% BSA, 2 mM IBMX) and cellular density determined. They were then diluted to 400000 cells/ml and 25 μl-aliquots dispensed into the wells of 96-well plates. For measurement, 25 μl of test compound in assay buffer was added to the wells, followed by incubation for 30 minutes at room temperature.
(TR-FRET usually uses a lanthanide donor and a delayed reading to cut background.)
For `CCCC[C@H](NC(=O)[C@H](CCC(N)=O)NC(=O)[C@H](CCCCN)NC(=O)[C@H](CO)NC(=O)[C@H](Cc1ccccc1F)NC(=O)[C@H](CC(=O)O)NC(=O)[C@H](CO)NC(=O)[C@@H](NC(=O)[C@H](Cc1ccccc1)NC(=O)[C@@H](NC(=O)CNC(=O)[C@H](CCC(N)=O)NC(=O)[C@H](CO)NC(=O)[C@@H](N)Cc1cscn1)[C@@H](C)O)[C@@H](C)O)C(=O)N[C@@H](CCC(=O)O)C(=O)N[C@@H](CO)C(=O)N[C@@H](CCCNC(=N)N)C(=O)N[C@@H](CCCNC(=N)N)C(=O)N[C@@H](C)C(=O)N[C@@H](CCC(N)=O)C(=O)N[C@@H](CC(=O)O)C(=O)N[C@@H](Cc1ccccc1)C(=O)N[C@H](C(=O)N[C@@H](CCC(=O)O)C(=O)N[C@@H](Cc1c[nH]c2ccccc12)C(=O)N[C@@H](CC(C)C)C(=O)N[C@@H](CC(C)C)C(=O)N[C@@H](C)C(=O)N[C@H](C(=O)NCC(=O)N1CCC[C@H]1C(=O)N[C@@H](CCC(=O)O)C(=O)N[C@@H](CO)C(=O)NCC(=O)N[C@@H](C)C(=O)N1CCC[C@H]1C(=O)N1CCC[C@H]1C(=O)N1CCC[C@H]1C(=O)N[C@@H](CO)C(=O)O)[C@@H](C)O)[C@@H](C)CC` [SEQ ID NO 18, Tza-S-Q-G-T-F-T-S-D-2FPhe-S-K-Q-Nle-ESRRAQDFIEWLLATGPESGAPPPS-OH] (H-[Ala(4-thiazolyl)]SQGTFTSD[Phe(2-F)]SKQ[Nle]ESRRAQDFIEWLLATGPESGAPPPS-OH), the EC50 is 3.1 pM.

For `CC[C@H](C)[C@H](NC(=O)[C@H](Cc1ccccc1)NC(=O)[C@H](CC(=O)O)NC(=O)[C@H](CCC(N)=O)NC(=O)[C@H](C)NC(=O)[C@H](CCCNC(=N)N)NC(=O)[C@H](CCCNC(=N)N)NC(=O)[C@H](CO)NC(=O)[C@H](CCC(=O)O)NC(=O)[C@H](CC(C)C)NC(=O)[C@H](CCC(N)=O)NC(=O)[C@H](CCCCN)NC(=O)[C@H](CO)NC(=O)[C@H](Cc1cccc2ccccc12)NC(=O)[C@H](CC(=O)O)NC(=O)[C@H](CO)NC(=O)[C@@H](NC(=O)[C@H](Cc1ccccc1)NC(=O)[C@@H](NC(=O)CNC(=O)[C@H](CCC(N)=O)NC(=O)[C@H](CO)NC(=O)[C@@H](N)Cc1cscn1)[C@@H](C)O)[C@@H](C)O)C(=O)N[C@@H](CCC(=O)O)C(=O)N[C@@H](Cc1c[nH]c2ccccc12)C(=O)N[C@@H](CC(C)C)C(=O)N[C@@H](CC(C)C)C(=O)N[C@@H](C)C(=O)N[C@H](C(=O)NCC(=O)N1CCC[C@H]1C(=O)N[C@@H](CCC(=O)O)C(=O)N[C@@H](CO)C(=O)NCC(=O)N[C@@H](C)C(=O)N1CCC[C@H]1C(=O)N1CCC[C@H]1C(=O)N1CCC[C@H]1C(=O)N[C@@H](CO)C(=O)O)[C@@H](C)O` [SEQ ID NO 22, Tza-S-Q-G-T-F-T-S-D-1Nal-SKQLESRRAQDFIEWLLATGPESGAPPPS-OH] (H-[Ala(4-thiazolyl)]SQGTFTSD[1Nal]SKQLESRRAQDFIEWLLATGPESGAPPPS-OH; N-terminus assumed), the EC50 amounted to 1 pM.

Take `CCCC[C@H](NC(=O)[C@H](CCC(N)=O)NC(=O)[C@H](CCCCN)NC(=O)[C@H](CO)NC(=O)[C@H](Cc1ccccc1)NC(=O)[C@H](CC(=O)O)NC(=O)[C@H](CO)NC(=O)[C@@H](NC(=O)[C@H](Cc1ccccc1)NC(=O)[C@@H](NC(=O)CNC(=O)[C@H](CCC(N)=O)NC(=O)[C@H](CO)NC(=O)[C@@H](N)Cc1cscn1)[C@@H](C)O)[C@@H](C)O)C(=O)N[C@@H](CCC(=O)O)C(=O)N[C@@H](CO)C(=O)N[C@@H](CCCNC(=N)N)C(=O)N[C@@H](CCCNC(=N)N)C(=O)N[C@@H](C)C(=O)N[C@@H](CCC(N)=O)C(=O)N[C@@H](CC(=O)O)C(=O)N[C@@H](Cc1ccccc1)C(=O)N[C@H](C(=O)N[C@@H](CCC(=O)O)C(=O)N[C@@H](Cc1c[nH]c2ccccc12)C(=O)N[C@@H](CC(C)C)C(=O)N[C@@H](CC(C)C)C(=O)N[C@@H](C)C(=O)N[C@H](C(=O)NCC(=O)N1CCC[C@H]1C(=O)N[C@@H](CCC(=O)O)C(=O)N[C@@H](CO)C(=O)NCC(=O)N[C@@H](C)C(=O)N1CCC[C@H]1C(=O)N1CCC[C@H]1C(=O)N1CCC[C@H]1C(=O)N[C@@H](CO)C(=O)O)[C@@H](C)O)[C@@H](C)CC` [SEQ ID NO 13, Tza-S-Q-G-T-F-T-S-D-F-S-K-Q-Nle-ESRRAQDFIEWLLATGPESGAPPPS-OH] (H-[Ala(4-thiazolyl)]SQGTFTSDFSKQ[Nle]ESRRAQDFIEWLLATGPESGAPPPS-OH; N-terminus assumed): the EC50 was found to be 3.1 pM.

On to `CCCC[C@H](NC(=O)[C@H](CCC(N)=O)NC(=O)[C@H](CCCCN)NC(=O)[C@H](CO)NC(=O)[C@H](Cc1ccc(O)cc1)NC(=O)[C@H](CC(=O)O)NC(=O)[C@H](CO)NC(=O)[C@@H](NC(=O)[C@H](Cc1ccccc1)NC(=O)[C@@H](NC(=O)CNC(=O)[C@H](CCC(N)=O)NC(=O)[C@H](CO)NC(=O)[C@@H](N)Cc1cscn1)[C@@H](C)O)[C@@H](C)O)C(=O)N[C@@H](CCC(=O)O)C(=O)N[C@@H](CO)C(=O)N[C@@H](CCCNC(=N)N)C(=O)N[C@@H](CCCNC(=N)N)C(=O)N[C@@H](C)C(=O)N[C@@H](CCC(N)=O)C(=O)N[C@@H](CCC(=O)O)C(=O)N[C@@H](Cc1ccccc1)C(=O)N[C@H](C(=O)N[C@@H](CCC(=O)O)C(=O)N[C@@H](Cc1c[nH]c2ccccc12)C(=O)N[C@@H](CC(C)C)C(=O)N[C@@H](CC(C)C)C(=O)N[C@@H](C)C(=O)N[C@H](C(=O)NCC(=O)N1CCC[C@H]1C(=O)N[C@@H](CCC(=O)O)C(=O)N[C@@H](CO)C(=O)NCC(=O)N[C@@H](C)C(=O)N1CCC[C@H]1C(=O)N1CCC[C@H]1C(=O)N1CCC[C@H]1C(=O)N[C@@H](CO)C(=O)O)[C@@H](C)O)[C@@H](C)CC` [SEQ ID NO 17, Tza-S-Q-G-T-F-T-S-D-Y-S-K-Q-Nle-ESRRAQEFIEWLLATGPESGAPPPS-OH], for which the EC50 worked out at 1 pM.

Still in this test, the particulars now being: Table 5, Tza vs. His in position 1; read-out: EC50 hGlucagon-R.
On to `CCCC[C@H](NC(=O)[C@H](CCC(N)=O)NC(=O)[C@H](CCCCN)NC(=O)[C@H](CO)NC(=O)[C@H](CC(C)C)NC(=O)[C@H](CC(=O)O)NC(=O)[C@H](CO)NC(=O)[C@@H](NC(=O)[C@H](Cc1ccccc1)NC(=O)[C@@H](NC(=O)CNC(=O)[C@H](CCC(N)=O)NC(=O)[C@H](CO)NC(=O)[C@@H](N)Cc1c[nH]cn1)[C@@H](C)O)[C@@H](C)O)C(=O)N[C@@H](CCC(=O)O)C(=O)N[C@@H](CO)C(=O)N[C@@H](CCCNC(=N)N)C(=O)N[C@@H](CCCNC(=N)N)C(=O)N[C@@H](C)C(=O)N[C@@H](CCC(N)=O)C(=O)N[C@@H](CCC(=O)O)C(=O)N[C@@H](Cc1ccccc1)C(=O)N[C@H](C(=O)N[C@@H](CCC(=O)O)C(=O)N[C@@H](Cc1c[nH]c2ccccc12)C(=O)N[C@@H](CC(C)C)C(=O)N[C@@H](CC(C)C)C(=O)N[C@@H](C)C(=O)N[C@H](C(=O)NCC(=O)N1CCC[C@H]1C(=O)N[C@@H](CCC(=O)O)C(=O)N[C@@H](CO)C(=O)NCC(=O)N[C@@H](C)C(=O)N1CCC[C@H]1C(=O)N1CCC[C@H]1C(=O)N1CCC[C@H]1C(=O)N[C@@H](CO)C(=O)O)[C@@H](C)O)[C@@H](C)CC` [SEQ ID NO 36, H-S-Q-G-T-F-T-S-D-L-S-K-Q-Nle-ESRRAQEFIEWLLATGPESGAPPPS-OH, reference compound] (H-HSQGTFTSDLSKQ[Nle]ESRRAQEFIEWLLATGPESGAPPPS-OH), for which the EC50 was found to be 1.4 pM.

With `CC[C@H](C)[C@H](NC(=O)[C@H](Cc1ccccc1)NC(=O)[C@H](CCC(=O)O)NC(=O)[C@H](CCC(N)=O)NC(=O)[C@H](C)NC(=O)[C@H](CCCNC(=N)N)NC(=O)[C@H](CCCNC(=N)N)NC(=O)[C@H](CO)NC(=O)[C@H](CCC(=O)O)NC(=O)[C@H](CC(C)C)NC(=O)[C@H](CCC(N)=O)NC(=O)[C@H](CCCCN)NC(=O)[C@H](CO)NC(=O)[C@H](Cc1ccc(O)cc1)NC(=O)[C@H](CC(=O)O)NC(=O)[C@H](CO)NC(=O)[C@@H](NC(=O)[C@H](Cc1ccccc1)NC(=O)[C@@H](NC(=O)CNC(=O)[C@H](CCC(N)=O)NC(=O)[C@H](CO)NC(=O)[C@@H](N)Cc1c[nH]cn1)[C@@H](C)O)[C@@H](C)O)C(=O)N[C@@H](CCC(=O)O)C(=O)N[C@@H](Cc1c[nH]c2ccccc12)C(=O)N[C@@H](CC(C)C)C(=O)N[C@@H](CC(C)C)C(=O)N[C@@H](C)C(=O)NCC(=O)NCC(=O)N1CCC[C@H]1C(=O)N[C@@H](CCC(=O)O)C(=O)N[C@@H](CO)C(=O)NCC(=O)N[C@@H](C)C(=O)N1CCC[C@H]1C(=O)N1CCC[C@H]1C(=O)N1CCC[C@H]1C(=O)N[C@@H](CO)C(=O)O` [SEQ ID NO 28, HSQGTFTSDYSKQLESRRAQEFIEWLLAGGPESGAPPPS-OH, reference compound], the EC50 came to 1 pM.

Regarding “H-HSQGTFTSDLSKQLESRRAQEFIEWLLATGPESGAPPPS-OH [SEQ ID NO 34, HSQGTFTSDLSKQLESRRAQEFIEWLLATGPESGAPPPS-OH, reference compound]”, the EC50 was 1.4 pM.
